Earlier results on five compounds are cited in patent EP1030653B1, “DINITROANILINE LIPOSOMAL FORMULATIONS AND PROCESSES FOR THEIR PREPARATION” (INSTITUTO NACIONAL DE ENGENHARIA E TECNOLOGIA …, priority 1998, dated 2000).

This data set relates to Leishmania sp.

For `CCC1=C(C[C@H]2NCCc3cc(OC)c(OC)cc32)C[C@H]2c3cc(OC)c(OC)cc3CCN2C1` [dehydroemetine], the cure is reported as 67%.

Consider `CC(=O)N(O)CCCCCNC(=O)CCC(=O)N(O)CCCCCNC(=O)CCC(=O)N(O)CCCCCN` [desferrioxiamine], for which the efficiency (literature (32)) was 44%. For `CN(Cc1cnc2nc(N)nc(N)c2n1)c1ccc(C(=O)N[C@@H](CCC(=O)O)C(=O)O)cc1` [methotrexate], the “reduction on the infection level” value (literature (10, 11)) was 85%. Consider `N=C(N)c1ccc(OCCCCCOc2ccc(C(=N)N)cc2)cc1` [pentamidine], for which the “efficacy (in words)” value (literature) is recorded as “less efficacy than antimonial derivatives”. For `CCCN(CCC)c1c([N+](=O)[O-])cc(C(F)(F)F)cc1[N+](=O)[O-]` [trifluralin], under “topical route, literature (12)”, the “activity against the visceral forms” value is listed as “no activity”.
